# Experimental data published in patent publication US20130315843A1, “COMPOSITION FOR REDUCTION OF TRPA1 AND TRPV1 SENSATIONS” (priority 2012, published 2013).
# Where two headings read alike, the source gives them in different places.
# Target: human TRPA1 (Homo sapiens, UniProt O75762)
# Experiment: FLIPR Ca2+ assay, reduction of hydrogen peroxide activation of TRPA1
# Assay type: cell-based
# Set-up: expressed in transfected cells
# Settings: for inhibition at 100 µM / inhibition at 400 µM: read-out: % Reduction of Hydrogen Peroxide TRPA1 Activation
# Experimental: After centrifugation, a pellet of cells was formed in the bottom of the tube separating them from the supernatant solution.
# The pelleted cells were re-suspended in 10 ml assay buffer and 90 μl aliquots (˜50,000 cells) per well delivered to a 96-well assay plate containing 10 μl of test compounds ([…]) or buffer control and incubated at room temperature for 30 minutes.
# [1] = 100 μM antagonist vs 500 μM hydrogen peroxide
# [2] = compound 100 μM against 200 μM hydrogen peroxide, Sets 1-4
# [3] = antagonist 400 μM against 200 μM hydrogen peroxide
# [4] = 400 μM antagonist vs 500 μM hydrogen peroxide
# Chain of human TRPA1 (O75762 whole entry): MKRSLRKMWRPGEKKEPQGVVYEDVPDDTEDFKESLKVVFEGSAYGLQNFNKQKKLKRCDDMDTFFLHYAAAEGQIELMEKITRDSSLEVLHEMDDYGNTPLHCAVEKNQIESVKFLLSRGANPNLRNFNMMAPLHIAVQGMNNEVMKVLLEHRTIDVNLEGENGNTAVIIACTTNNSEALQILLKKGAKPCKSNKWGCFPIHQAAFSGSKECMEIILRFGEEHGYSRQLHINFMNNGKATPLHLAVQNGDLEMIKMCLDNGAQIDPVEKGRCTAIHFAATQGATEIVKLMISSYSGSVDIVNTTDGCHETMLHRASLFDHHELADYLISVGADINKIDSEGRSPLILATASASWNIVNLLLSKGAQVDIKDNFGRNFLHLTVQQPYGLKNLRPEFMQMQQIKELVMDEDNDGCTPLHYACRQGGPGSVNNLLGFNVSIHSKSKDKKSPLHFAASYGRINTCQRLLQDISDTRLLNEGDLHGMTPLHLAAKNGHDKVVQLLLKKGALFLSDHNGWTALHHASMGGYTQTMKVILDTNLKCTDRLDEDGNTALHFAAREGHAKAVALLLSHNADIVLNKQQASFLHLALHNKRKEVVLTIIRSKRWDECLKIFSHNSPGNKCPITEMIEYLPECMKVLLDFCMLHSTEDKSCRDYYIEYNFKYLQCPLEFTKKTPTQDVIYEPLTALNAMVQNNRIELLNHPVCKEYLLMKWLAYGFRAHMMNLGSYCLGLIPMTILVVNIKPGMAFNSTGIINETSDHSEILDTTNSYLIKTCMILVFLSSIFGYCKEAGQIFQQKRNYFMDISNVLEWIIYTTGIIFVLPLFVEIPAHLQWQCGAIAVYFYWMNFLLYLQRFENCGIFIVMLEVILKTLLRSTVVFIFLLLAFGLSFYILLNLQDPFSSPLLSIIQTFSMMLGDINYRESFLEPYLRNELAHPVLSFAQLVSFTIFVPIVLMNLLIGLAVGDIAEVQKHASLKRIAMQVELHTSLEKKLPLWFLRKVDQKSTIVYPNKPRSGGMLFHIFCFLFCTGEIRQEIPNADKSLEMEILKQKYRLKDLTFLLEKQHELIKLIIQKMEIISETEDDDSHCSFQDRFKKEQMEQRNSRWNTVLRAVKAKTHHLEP
Compound,Block of hydrogen peroxide activation of TRPA1 [1],Average Ca++ Counts [2],inhibition at 100 µM [2],further results
CCCCCCCCC1CCC(=O)O1 (stereo not shown) [γ-Dodecalactone],,,,% Reduction of Hydrogen Peroxide TRPA1 Activation: 51%; Block of hydrogen peroxide activation of TRPA1: BLOCK ONLY H2O2/TRPA1
CCCc1ccc(O)c(OC)c1 [2-Methoxy-4-propyl-phenol],,,,Block of hydrogen peroxide activation of TRPA1: BLOCK ONLY H2O2/TRPA1; inhibition at 400 µM: 43%
"CC1=CC(O)CC(C)C2CC(=C(C)C)CC12 (stereo not shown) [Vetiverol, 6-Azulenol, 1,2,3,3a,4,5,6,8a-octahydro-4,8-dimethyl-2-(1-methylethylidene)-]",,,,inhibition at 400 µM [3]: -34%
COC(=O)c1ccccc1 [methylbenzoate],,,,Average Ca++ Counts: 3817.0 Counts; Block of hydrogen peroxide activation of TRPA1: BLOCK ONLY H2O2/TRPA1; inhibition at 100 µM: 56.2%
COC(=O)c1ccccc1OC [Methyl 2-methoxy-benzoate],,,,Block of hydrogen peroxide activation of TRPA1 [4]: BLOCK ONLY H2O2/TRPA1; inhibition at 400 µM [3]: 48%
CCC/C=C/C=O [trans-2-Hexenal],,,,Block of hydrogen peroxide activation of TRPA1: BLOCK ONLY H2O2/TRPA1; inhibition at 400 µM: 52%
"CSCSCSC [2,4,6-trithiaheptane]",BLOCK ONLY H2O2/TRPA1,4610.5 Counts,56.5%,
C[C@H]1CC[C@]2(O1)C(C)(C)CCC[C@]2(C)O,,,,Block of hydrogen peroxide activation of TRPA1 [4]: BLOCK ONLY H2O2/TRPA1
CC1=C(O)C(=O)CC1.O [2-hydroxy-3-methyl-2-cyclopenten-1-one hydrate],,,,Average Ca++ Counts: 4172.0 Counts; inhibition at 100 µM: 60.6%
CCCCCCCCCCCO [1-undecanol],BLOCK ONLY H2O2/TRPA1,3396.0 Counts,51.8%,
O=C1O[C@H]([C@H](O)CO)C([O-])=C1O.[Na+] [sodium erythorbate],,,,% Reduction of Hydrogen Peroxide TRPA1 Activation: 54.5%; Average Ca++ Counts: 3204.5 Counts; Block of hydrogen peroxide activation of TRPA1: BLOCK ONLY H2O2/TRPA1
"C=C(C)c1ccc(C)cc1 [alpha,p-dimethylstyrene]",,3735.5 Counts,,% Reduction of Hydrogen Peroxide TRPA1 Activation [2]: 57.2%
"CC1CC(O)CC(C)(C)C1 (stereo not shown) [3,3,5-Trimethylcyclohexanol]",,,,Block of hydrogen peroxide activation of TRPA1 [4]: BLOCK ONLY H2O2/TRPA1; inhibition at 400 µM [3]: 72%
CCC(C)COC(=O)C(C)CC (stereo not shown) [2-methylbutyl 2-methylbutyrate],,2685.5 Counts,61.9%,
COC(=O)CCCc1ccccc1 [Methyl-4-phenyl butyrate],,,,Block of hydrogen peroxide activation of TRPA1 [4]: BLOCK ONLY H2O2/TRPA1; % Reduction of Hydrogen Peroxide TRPA1 Activation [3]: 60%
"CC(=O)OCC(C)(C)Cc1ccccc1 [alpha,alpha-dimethylhydrocinnamyl acetate]",,3367.0 Counts,52.2%,
"Cc1ccc(C)c(O)c1 [2,5-dimethylphenol]",BLOCK ONLY H2O2/TRPA1,5208.0 Counts,50.8%,
desoxycholic acid,,,,% Reduction of Hydrogen Peroxide TRPA1 Activation: 56.6%; Average Ca++ Counts: 3058.5 Counts; Block of hydrogen peroxide activation of TRPA1: BLOCK ONLY H2O2/TRPA1
c1ccc(CCCC2CCCO2)cc1 (stereo not shown) [2-(3-Phenylpropyl) tetrahydrofuran],,,,Block of hydrogen peroxide activation of TRPA1 [4]: BLOCK ONLY H2O2/TRPA1; inhibition at 400 µM [3]: 74%
[Cl][Fe]([Cl])[Cl] [ferric chloride],BLOCK ONLY H2O2/TRPA1,3287.0 Counts,,% Reduction of Hydrogen Peroxide TRPA1 Activation [2]: 53.3%
"CCCC1CC(=O)C=C(C)C1 (stereo not shown) [Celery Ketone, 2-Cyclohexen-1-one, 3-methyl-5-propyl-]",,,,inhibition at 400 µM [3]: 56%
CCC(C)COC(=O)C(C)CC (stereo not shown) [2-Methyl butyl 2-methylbutyrate],BLOCK ONLY H2O2/TRPA1,,,
"CC(=O)CCc1ccc2c(c1)OCO2 [4-benzo[1,3]dioxol-5-yl-butan-2-one]",,,,Average Ca++ Counts: 5431.5 Counts; Block of hydrogen peroxide activation of TRPA1: BLOCK ONLY H2O2/TRPA1; inhibition at 100 µM: 48.7%
CC(=O)OCCC(C)CCC=C(C)C (stereo not shown) [Citronellyl acetate],,,,Block of hydrogen peroxide activation of TRPA1 [4]: BLOCK ONLY H2O2/TRPA1; inhibition at 400 µM [3]: 70%
C=CC(CCCCC)OC(C)=O (stereo not shown) [1-octen-3-yl acetate],BLOCK ONLY H2O2/TRPA1,3228.5 Counts,54.2%,
NC(N)=O [urea],,,,% Reduction of Hydrogen Peroxide TRPA1 Activation: 52.4%; Average Ca++ Counts: 5045.5 Counts; Block of hydrogen peroxide activation of TRPA1: BLOCK ONLY H2O2/TRPA1

# More lines, main results first:
Block of hydrogen peroxide activation of TRPA1 [1],Average Ca++ Counts [2],inhibition at 100 µM [2],Compound,further results
BLOCK ONLY H2O2/TRPA1,3440.0 Counts,51.2%,c1ccc2ncccc2c1 [quinoline],
BLOCK ONLY H2O2/TRPA1,4904.5 Counts,53.7%,COC(=O)c1ccc(O)cc1 [methyl 4-hydroxybenzoate],
BLOCK ONLY H2O2/TRPA1,4747.0 Counts,55.2%,CC(C)CCCC(=O)O [5-methylhexanoic acid],
BLOCK ONLY H2O2/TRPA1,3149.0 Counts,55.3%,CCCCCO [amyl alcohol],
,3376.0 Counts,52.1%,"CCCCCCC1OCC(C)O1 (stereo not shown) [2-hexyl-4-methyl-1,3-dioxolan]",
BLOCK ONLY H2O2/TRPA1,4875.0 Counts,54%,CCC(=O)c1nccs1 [2-propionylthiazole],
BLOCK ONLY H2O2/TRPA1,,,COc1cc(C(=O)O)ccc1O [Vanillic Acid],inhibition at 100 µM (antagonist 100 μM against 200 μM hydrogen peroxide): 19%
BLOCK ONLY H2O2/TRPA1,5193.0 Counts,51%,CC=CC(=O)O [but-2-enoic acid],
BLOCK ONLY H2O2/TRPA1,5040.0 Counts,52.4%,CCC=C(C)C(=O)O [2-methyl-2-pentenoic acid],
BLOCK ONLY H2O2/TRPA1,5617.5 Counts,47%,O=C(O)CC(O)C(=O)O (stereo not shown) [malic acid],
BLOCK ONLY H2O2/TRPA1,2981.0 Counts,57.7%,"CC(=O)c1cccnc1 [3-acetylpyridine, 98%, 3-acetylpyridine]",
BLOCK ONLY H2O2/TRPA1,3244.5 Counts,53.9%,CC(=O)c1ccc(C)cc1 [4′-methylacetophenone],
BLOCK ONLY H2O2/TRPA1,,,"CC(C)CCCC(C)CCO (stereo not shown) [3,7-Dimethyl-1-octanol]",
BLOCK ONLY H2O2/TRPA1,1255.5 Counts,82.2%,CCC(S)C(C)=O (stereo not shown) [3-mercapto-2-pentanone],
BLOCK ONLY H2O2/TRPA1,3383.0 Counts,52%,CC(C)COC(=O)C(C)C [isobutyl isobutyrate],
BLOCK ONLY H2O2/TRPA1,4341.5 Counts,59%,CC(=O)C(C)O (stereo not shown) [acetoin],
BLOCK ONLY H2O2/TRPA1,,,"CCCCCCC1OCC(C)O1 (stereo not shown) [2-Hexyl-4-methyl-1,3-dioxolane]",
